Data on one compound can be found in US20170215432A1, “SYNERGIZED PLANT EXTRACT/ESSENTIAL OIL BLEND COMPRISING BASIL OIL” (VAMA INC., priority 2014, published 2017).

The subject of this test is Anopheles, Aedes, Stephinsi and Culex mosquito vectors. The test can be described thus: Laboratory cage repellency, landing counts on treated sugar-soaked cotton bowls. Type of test: in vivo. As to the method: Studies were carried out against each individual species in replicates of three in each of the replicate cage, one hundred 3 to 5-day old sugar—fed female mosquitoes were held. Mosquito that are pre-starved for 4 hr or more prior to testing were used for the experiment.
Five plastic bowls with sugar—soaked cotton (10% in water) were placed at four opposing corners and one in the middle of the cage. These bowls were treated with the specified concentration of the composition described in Example 3, one specified concentration of DEET (know synthetic repellent compound as positive control) and one with only sugar-soaked cotton (Negative control). The four treated bowls were placed in four opposing corners while the untreated negative control in the middle on the floor of the cage. Five-minute landing counts were made at 0, 1, 2, 3, 4, and 6 hours with the cups were removed between the exposure intervals. Mean percent repellency for each percent formulation and species was calculated based on the data of the three replicates at the given times of observation.

For the compound `CCN(CC)C(=O)c1cccc(C)c1` [DEET], under “after 4 hrs”, the “mosquitoes repelled with reference to the control” value came to 79%. This compound also came in with a mosquitoes repelled (in 4 hrs) of 97%.
